For two compounds, IC50 results are on record in article PMC5918173, “Characterization of Transglutaminase 2 activity inhibitors in monocytes in vitro and their effect in a mouse model for multiple sclerosis” (PLoS ONE, 2018).

The target of the assay is T1, recombinant mouse TG2 (mTG2) (Mus musculus, UniProt P21981).
T1 construct: purchased Zedira
T1 sequence (P21981 1-686): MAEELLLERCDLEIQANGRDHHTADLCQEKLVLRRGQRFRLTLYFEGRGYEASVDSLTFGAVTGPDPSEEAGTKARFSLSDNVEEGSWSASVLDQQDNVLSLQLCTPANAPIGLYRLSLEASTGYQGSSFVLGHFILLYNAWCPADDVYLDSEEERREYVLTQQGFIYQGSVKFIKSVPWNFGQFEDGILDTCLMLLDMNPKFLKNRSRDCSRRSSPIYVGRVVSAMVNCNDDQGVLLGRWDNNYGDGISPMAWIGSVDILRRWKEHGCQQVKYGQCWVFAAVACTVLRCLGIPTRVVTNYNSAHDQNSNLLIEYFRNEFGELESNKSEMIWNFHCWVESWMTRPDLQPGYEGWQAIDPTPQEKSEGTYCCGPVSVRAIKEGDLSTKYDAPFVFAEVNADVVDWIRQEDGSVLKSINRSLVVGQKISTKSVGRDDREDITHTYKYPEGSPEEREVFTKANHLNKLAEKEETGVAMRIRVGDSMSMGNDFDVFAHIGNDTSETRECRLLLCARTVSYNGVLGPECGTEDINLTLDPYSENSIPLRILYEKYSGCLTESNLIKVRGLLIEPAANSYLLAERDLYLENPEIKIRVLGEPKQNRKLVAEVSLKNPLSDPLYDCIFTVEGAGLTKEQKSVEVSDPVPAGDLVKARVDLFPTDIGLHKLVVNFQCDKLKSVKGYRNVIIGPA
In words: Inhibition of recombinant Transglutaminase activity (fluorescent substrate), mouse TG2. Type of assay: biochemical. Particulars: recombinant mouse TG2, Fig 2A. As for the experimental part: The potency and specificity of TG2 inhibitors was assessed with various recombinant TGs, as previously described. The reaction buffer (50 mM Tris, 100 mM NaCl, 10 mM CaCl2, 5 mM H-Gly-OMe*HCl (glycinemethylestherhydrochloride, Sigma), 5 mM hexadimethinbromide (Sigma), 9.1 mM DTT, pH 7.5) was heated to 37°C in a 96 well plate. Then 50 μM of the TG substrate Abz-NE(CAD-DNP)EQVSPLTLLK-OH (Zedira) was added. 1 μg/ml recombinant TG (human TG1, human (hTG2) / mouse TG2 (mTG2) or human Factor XIII (FXIII); Zedira) were added. The two lyophilized TG2 inhibitors (see Fig 1 for chemical structure) BJJF078 (3,4-Dimethoxy-N-(5-[4-(acryloylamino)piperidine-1-sulfonyl]-naphthalen-1-yl)-benzamide, kindly provided by Dr S. El Alaoui, Covalab, France) and ERW1041E (2-[(3-Bromo-4,5-dihydro-isoxazol-5-ylmethyl)-carbamoyl]-pyrrolidine-1—carboxylic acid quinolin-3-ylmethyl ester, kindly provided by Prof C. Khosla, Stanford University, USA) were dissolved in DMSO (stock solution: 54 mM) and stored at -80°C. These stocks were further diluted and various concentrations of the TG2 inhibitors (0.3 nM to 100 μM), were added to the wells (final DMSO concentration per well: 0.06%). The relative increase in fluorescence emission, correlating with enzymatic activity, was measured over 4 h with a fluorimeter (Excitation: 320nm, emission: 405 nm; Fluostar, GMB).

What is called IC50 is the concentration that inhibits the measured activity by half. As to `C=CC(=O)NC1CCN(S(=O)(=O)c2cccc3c(NC(=O)c4ccc(OC)c(OC)c4)cccc23)CC1` [BJJF078, 3,4-Dimethoxy-N-(5-[4-(acryloylamino)piperidine-1-sulfonyl]-naphthalen-1-yl)-benzamide], the IC50 is 0.054 µM. With `O=C(NCC1CC(Br)=NO1)C1CCCN1C(=O)OCc1cnc2ccccc2c1` (centres unmarked) [ERW1041E, 2-[(3-Bromo-4,5-dihydro-isoxazol-5-ylmethyl)-carbamoyl]-pyrrolidine-1—carboxylic acid quinolin-3-ylmethyl ester] the figure was 6.8 µM.
